Measured values reported in patent US6365578B1, “Drug cominbations containing AZT” (Roger Williams General Hospital, priority 1990, dated 2002).
Where two headings read alike, the source gives them in different places.

Key:
[1] = tested on: Balb/C female athymic (nude) mice; details: 4 courses
Description: In vivo tests to assess the toxicity of various dosages of AZT and FUra were carried out on Balb/C female athymic (nude) mice.
(§1) The mice were divided into groups of 5-8 animals each and treated with different doses and schedules of FUra, AZT, or both in combination. FUra and AZT were dissolved in normal saline immediately before use and were administered by intraperitoneal bolus injection so that the desired dose was contained in 0.1 ml/10 g animal body weight. FUra was administered in doses corresponding to 80, 90 and 100 mg/kg weekly or 20, 25, and 30 mg/kg for 5 consecutive days with intervening 2 week rest periods. The AZT component was administered at doses of 300 or 600 mg/kg. In those cases where the two components were not administered simultaneously, the FUra component was administered first followed in approximately 2 hours with the AZT component. Toxicity was assessed by determination of mortality, changes in body weight, and changes in white blood cell counts (WBC). Animal body weights were recorded immediately before and twice weekly after initiation of treatment and weight change was calculated as a percentage of the initial body weight. To determine WBC, blood was collected from the orbital sinus in a heparinized Natelson pipette, and after appropriate dilution the cell number was determined electronically one week after each course of therapy. The tests were carried out in duplicate and the pooled number of animals per treatment group was 10-16.
In the control group the mice received no treatment; in group 2 they received 600 mg/kg of AZT; in group 3 they received 85 mg/kg of FUra; in group 4 they received 85 mg/kg of FUra followed at a 2 hour interval by 600 mg/kg of AZT; in group 5 the mice received 100 mg/kg of FUra alone. A total of 4 courses of administration were carried out, each in triplicate, and the pooled number of animals per treatment group corresponded to 23-30.

[2] = tested on: Balb/C female athymic (nude) mice; details: 2 courses
Description: as §1
A second series of toxicity tests were carried out using a different regimen with similar groups of animals as follows:
Group 1 was treated with 600 mg/kg of AZT for days 3 to 5 inclusive; Group 2 was treated with 20 mg/kg of FUra from days 1 to 5; Group 3 was treated with 20 mg/kg of FUra for days 1 to 5 and with 600 mg/kg of AZT for days 3 to 5; Group 4 was treated with 25 mg/kg of FUra for days 1 to 5. The medication was administered by intraperitoneal bolus, the AZT being administered two hours after FUra. The treatment was repeated every two weeks. A total of 2 courses were administered, the tests being carried out in triplicate and the pool number of animals per treatment group corresponded to 21-30.

[3] = tested on: mice; test: LD10 of MTX in mice; format: in vivo; details: weekly

Compound: Cc1cn([C@H]2C[C@H](N=[N+]=[N-])[C@@H](CO)O2)c(=O)[nH]c1=O [AZT, 3′-azido-3′-deoxythymidine]
- Mortality (percent dead on day 29 after starting treatment) ([1]; AZT 600 mg/kg i.p.): 0%
- Mortality (percent dead on day 29 after starting treatment) ([2]; AZT 600 mg/kg i.p. days 3 to 5, repeated every two weeks): 0%

Compound: O=c1[nH]cc(F)c(=O)[nH]1 [FUra, 5-fluorouracil]
- Mortality (percent dead on day 29 after starting treatment) ([1]; FUra 85 mg/kg i.p.): 25%
- Mortality (percent dead on day 29 after starting treatment) ([1]; FUra 100 mg/kg i.p.): 60.8%
- Mortality (percent dead on day 29 after starting treatment) ([2]; FUra 20 mg/kg i.p. days 1 to 5, repeated every two weeks): 0%
- Mortality (percent dead on day 29 after starting treatment) ([2]; FUra 25 mg/kg i.p. days 1 to 5, repeated every two weeks): 12.5%

Compound: CN(Cc1cnc2nc(N)nc(N)c2n1)c1ccc(C(=O)N[C@@H](CCC(=O)O)C(=O)O)cc1 [MTX, methotrexate]
- LD10 [3]: 87.5 mg/kg/wk
